Test results as given in ChEMBL document CHEMBL1221210, “A Cdc7 kinase inhibitor restricts initiation of DNA replication and has antitumor activity” (Nat Chem Biol, 2008).
The source made the active and inactive calls. No cut-off for these calls is given here.

What was measured:
OVCAR-8 [1] = assay: Antiproliferative activity against p53 deficient human OVCAR8 cells after 72 hrs by proliferative assay; assay type: functional, cell-based; conditions: OVCAR-8, 72 h
PC-3 [2] = assay: Induction of cell cycle arrest in human PC3 cells expressing p53 gene assessed as accumulation at subG1 phase at 100 uM after 24hrs by FACS analysis; assay type: functional
[3] = Induction of cell cycle arrest in p53 deficient human A2780/E6 cells as accumulation at subG1 phase at 100 uM after 24hrs by FACS analysis; assay type: functional
NHDF [4] = assay: Induction of cell cycle arrest in NHDF expressing p53 gene assessed as accumulation at subG1 phase at 100 uM after 24hrs by FACS analysis; assay type: cell-based; conditions: human
NHDF [5] = assay: Antiproliferative activity against NHDF expressing p53 gene after 72 hrs by proliferative assay; assay type: cell-based; conditions: Homo sapiens
SW480 [6] = assay: Induction of cell cycle arrest in p53 deficient human SW480 cells assessed as accumulation at subG1 phase at 100 uM after 24hrs by FACS analysis; assay type: functional
HCT-15 [7] = assay: Induction of cell cycle arrest in human HCT15 cells expressing p53 gene assessed as accumulation at subG1 phase at 100 uM after 24hrs by FACS analysis; assay type: functional
U2OS [8] = assay: Induction of cell cycle arrest in human U2OS cells expressing p53 gene assessed as accumulation at subG1 phase at 100 uM after 24hrs by FACS analysis; assay type: functional
K562 [9] = assay: Induction of cell cycle arrest in p53 deficient human K562 cells assessed as accumulation at subG1 phase at 100 uM after 24hrs by FACS analysis; assay type: functional
HCT-116 [10] = assay: Antiproliferative activity against human HCT116 cells expressing p53 gene after 72 hrs by proliferative assay; assay type: functional, cell-based; conditions: HCT-116, 72 h
SF-268 [11] = assay: Induction of cell cycle arrest in p53 deficient human SF268 cells assessed as accumulation at subG1 phase at 100 uM after 24 hrs FACS analysis; assay type: functional
PC-3 [12] = assay: Antiproliferative activity against human PC3 cells expressing p53 gene after 72 hrs by proliferative assay; assay type: functional, cell-based; conditions: PC-3, 72 h
A2780 [13] = assay: Induction of cell cycle arrest in human A2780 cells expressing p53 gene assessed as accumulation at subG1 phase at 100 uM after 24hrs by FACS analysis; assay type: functional
U2OS [14] = assay: Antiproliferative activity against human U2OS cells expressing p53 gene after 72 hrs by proliferative assay; assay type: functional, cell-based
MCF7 [15] = assay: Induction of cell cycle arrest in human MCF7 cells expressing p53 gene assessed as accumulation at subG1 phase at 100 uM after 24hrs by FACS analysis; assay type: functional
Jurkat [16] = assay: Antiproliferative activity against p53 deficient human Jurkat cells after 72 hrs by proliferative assay; assay type: functional, cell-based
HCT-15 [17] = assay: Antiproliferative activity against human HCT15 cells expressing p53 gene after 72 hrs by proliferative assay; assay type: functional, cell-based; conditions: HCT-15, 72 h
HeLa [18] = assay: Antiproliferative activity against p53 deficient human HeLa cells after 72 hrs; assay type: functional, cell-based
[19] = Induction of cell cycle arrest in p53 deficient human HCT116-E6 cells assessed as accumulation at subG1 phase at 100 uM after 24hrs by FACS analysis; assay type: functional
SF-539 [20] = assay: Induction of cell cycle arrest in human SF539 cells expressing p53 gene assessed as accumulation at subG1 phase at 100 uM after 24hrs by FACS analysis; assay type: functional
Jurkat [21] = assay: Induction of cell cycle arrest in p53 deficient human Jurkat cells assessed as accumulation at subG1 phase at 100 uM after 24hrs by FACS analysis; assay type: functional
HCT-116 [22] = assay: Induction of cell cycle arrest in human HCT116 cells expressing p53 gene assessed as accumulation at subG1 phase at 100 uM after 24hrs by FACS analysis; assay type: functional
MCF7 [23] = assay: Antiproliferative activity against human MCF7 cells expressing p53 gene after 72 hrs by proliferative assay; assay type: functional, cell-based; conditions: MCF7, 72 h
COLO 205 [24] = assay: Induction of cell cycle arrest in p53 deficient human COLO205 cells assessed as accumulation at subG1 phase at 100 uM after 24hrs by FACS analysis; assay type: functional
[25] = Antiproliferative activity against p53 deficient human A2780/E6 cells after 72 hrs by proliferative assay; assay type: functional, cell-based; conditions: A2780/E6, 72 h
COLO 205 [26] = assay: Antiproliferative activity against p53 deficient human COLO205 cells after 72 hrs; assay type: functional, cell-based; conditions: COLO 205, 72 h
OVCAR-8 [27] = assay: Induction of cell cycle arrest in p53 deficient human OVCAR8 cells assessed as accumulation at subG1 phase at 100 uM after 24hrs by FACS analysis; assay type: functional
HeLa [28] = assay: Induction of cell cycle arrest in p53 deficient human HeLa cells assessed as assessed as accumulation at subG1 phase at 100 uM after 24hrs by FACS analysis; assay type: functional
A2780 [29] = assay: Antiproliferative activity against human A2780 cells expressing p53 gene after 72 hrs by proliferative assay; assay type: functional, cell-based; conditions: A2780, 72 h
[30] = Antiproliferative activity against p53 deficient human HCT116/E6 cells after 72 hrs by proliferative assay; assay type: functional, cell-based; conditions: HCT116-E6, 72 h
SF-539 [31] = assay: Antiproliferative activity against human SF539 cells expressing p53 gene after 72 hrs by proliferative assay; assay type: functional, cell-based; conditions: SF-539, 72 h
SW480 [32] = assay: Antiproliferative activity against p53 deficient human SW480 cells after 72 hrs by proliferative assay; assay type: functional, cell-based; conditions: SW480, 72 h
K562 [33] = assay: Antiproliferative activity against p53 deficient human K562 cells after 72 hrs; assay type: functional, cell-based; conditions: K562, 72 h
SF-268 [34] = assay: Antiproliferative activity against p53 deficient human SF268 cells after 72 hrs; assay type: functional, cell-based; conditions: SF-268, 72 h
A2780 [35] = assay: Induction of apoptosis in human A2780 cells assessed as appearance of Mcl1 protein level after 24 hrs; assay type: functional, cell-based
[36] = Induction of cell cycle arrest in p53 deficient human HCT116-E6 cells assessed as accumulation at subG1 phase at 0.1 uM after 24hrs by FACS analysis; assay type: functional
SW480 [37] = assay: Induction of cell cycle arrest in p53 deficient human SW480 cells assessed as accumulation at subG1 phase at 0.1 uM after 24hrs by FACS analysis; assay type: functional
A2780 [38] = assay: Induction of cell cycle arrest in human A2780 cells expressing p53 gene assessed as accumulation at subG1 phase at 0.1 uM after 24hrs by FACS analysis; assay type: functional
SF-268 [39] = assay: Induction of cell cycle arrest in p53 deficient human SF268 cells assessed as accumulation at subG1 phase at 0.1 uM after 24 hrs FACS analysis; assay type: functional
HCT-15 [40] = assay: Induction of cell cycle arrest in human HCT15 cells expressing p53 gene assessed as accumulation at subG1 phase at 0.1 uM after 24hrs by FACS analysis; assay type: functional
MCF7 [41] = assay: Induction of cell cycle arrest in human MCF7 cells expressing p53 gene assessed as accumulation at subG1 phase at 0.1 uM after 24hrs by FACS analysis; assay type: functional
COLO 205 [42] = assay: Induction of cell cycle arrest in p53 deficient human COLO205 cells assessed as accumulation at subG1 phase at 0.1 uM after 24hrs by FACS analysis; assay type: functional
U2OS [43] = assay: Induction of cell cycle arrest in human U2OS cells expressing p53 gene assessed as accumulation at subG1 phase at 0.1 uM after 24hrs by FACS analysis; assay type: functional
HCT-116 [44] = assay: Induction of cell cycle arrest in human HCT116 cells expressing p53 gene assessed as accumulation at subG1 phase at 0.1 uM after 24hrs by FACS analysis; assay type: functional
NHDF [45] = assay: Induction of cell cycle arrest in NHDF expressing p53 gene assessed as accumulation at subG1 phase at 0.1 uM after 24hrs by FACS analysis; assay type: cell-based; conditions: human
OVCAR-8 [46] = assay: Induction of cell cycle arrest in p53 deficient human OVCAR8 cells assessed as accumulation at subG1 phase at 0.1 uM after 24hrs by FACS analysis; assay type: functional
SF-539 [47] = assay: Induction of cell cycle arrest in human SF539 cells expressing p53 gene assessed as accumulation at subG1 phase at 0.1 uM after 24hrs by FACS analysis; assay type: functional
[48] = Induction of cell cycle arrest in p53 deficient human A2780/E6 cells as accumulation at subG1 phase at 0.1 uM after 24hrs by FACS analysis; assay type: functional
Jurkat [49] = assay: Induction of cell cycle arrest in p53 deficient human Jurkat cells assessed as accumulation at subG1 phase at 0.1 uM after 24hrs by FACS analysis; assay type: functional
PC-3 [50] = assay: Induction of cell cycle arrest in human PC3 cells expressing p53 gene assessed as accumulation at subG1 phase at 0.1 uM after 24hrs by FACS analysis; assay type: functional
HeLa [51] = assay: Induction of cell cycle arrest in p53 deficient human HeLa cells assessed as assessed as accumulation at subG1 phase at 0.1 uM after 24hrs by FACS analysis; assay type: functional
K562 [52] = assay: Induction of cell cycle arrest in p53 deficient human K562 cells assessed as accumulation at subG1 phase at 0.1 uM after 24hrs by FACS analysis; assay type: functional

SMILES: O=c1[nH]cc(F)c(=O)[nH]1 [FLUOROURACIL]
- IC50 (OVCAR-8 [1]): 96.4 µM
- Activity (PC-3 [2]): <3%
- Activity [3]: <3%
- Activity (NHDF [4]): < 3%
- IC50 (NHDF [5]): 14.7 µM
- Activity (SW480 [6]): <3%
- Activity (HCT-15 [7]): <3%
- Activity (U2OS [8]): <3%
- Activity (K562 [9]): <3%
- IC50 (HCT-116 [10]): 6.36 µM
- Activity (SF-268 [11]): <3%
- IC50 (PC-3 [12]): 13.8 µM
- Activity (A2780 [13]): <3%
- IC50 (U2OS [14]): 13.2 µM
- Activity (MCF7 [15]): <3%
- IC50 (Jurkat [16]): 87.7 µM
- IC50 (HCT-15 [17]): 18.2 µM
- IC50 (HeLa [18]): > 100 µM
- Activity [19]: <3%
- Activity (SF-539 [20]): <3%
- Activity (Jurkat [21]): <3%
- Activity (HCT-116 [22]): 10%
- IC50 (MCF7 [23]): 26.7 µM
- Activity (COLO 205 [24]): <3%
- IC50 [25]: 38.7 µM
- IC50 (COLO 205 [26]): 11.6 µM
- Activity (OVCAR-8 [27]): <3%
- Activity (HeLa [28]): <3%
- IC50 (A2780 [29]): 7.21 µM
- IC50 [30]: 28.9 µM
- IC50 (SF-539 [31]): 50.1 µM
- IC50 (SW480 [32]): 26.3 µM
- IC50 (K562 [33]): > 100 µM
- IC50 (SF-268 [34]): 88 µM

SMILES: CN1CC[C@H](c2c(O)cc(O)c3c(=O)cc(-c4ccccc4Cl)oc23)[C@H](O)C1
- inhibition (A2780 [35]): Active

SMILES: Nc1ccn([C@@H]2O[C@H](CO)[C@@H](O)C2(F)F)c(=O)n1 [GEMCITABINE]
- IC50 (OVCAR-8 [1]): 0.0026 µM
- Activity [36]: <3%
- Activity (SW480 [37]): <3%
- IC50 (NHDF [5]): 0.0221 µM
- Activity (A2780 [38]): <3%
- Activity (SF-268 [39]): <3%
- Activity (HCT-15 [40]): 3%
- Activity (MCF7 [41]): <3%
- IC50 (HCT-116 [10]): 0.0097 µM
- Activity (COLO 205 [42]): <3%
- Activity (U2OS [43]): <3%
- Activity (HCT-116 [44]): <3%
- Activity (NHDF [45]): < 3%
- IC50 (PC-3 [12]): 0.0026 µM
- Activity (OVCAR-8 [46]): <3%
- IC50 (U2OS [14]): 0.0907 µM
- IC50 (Jurkat [16]): 0.0453 µM
- Activity (SF-539 [47]): <3%
- IC50 (HCT-15 [17]): 0.0099 µM
- IC50 (HeLa [18]): > 10 µM
- Activity [48]: <3%
- Activity (Jurkat [49]): >20%
- IC50 (MCF7 [23]): 0.0803 µM
- IC50 [25]: 0.0026 µM
- IC50 (COLO 205 [26]): 0.0514 µM
- Activity (PC-3 [50]): <3%
- IC50 (A2780 [29]): 0.0166 µM
- IC50 [30]: 0.896 µM
- Activity (HeLa [51]): <3%
- Activity (K562 [52]): <3%
- IC50 (SF-539 [31]): 0.0198 µM
- IC50 (SW480 [32]): 0.0136 µM
- IC50 (K562 [33]): 0.746 µM
- IC50 (SF-268 [34]): 0.0103 µM
